# According to patent publication US20090053168A1, “TREATMENTS OF B-CELL PROLIFERATIVE DISORDERS” (priority 2007, published 2009):
# Where a name gives a salt, the structure may show the parent alone.
# What was measured:
# RPMI-8226 cells = experiment: Anti-proliferation assay (ATPLite, 72 h), RPMI-8226; format: cell-based; conditions: for synergy score: RPMI-8226
# H929 cells = experiment: Anti-proliferation assay (ATPLite, 72 h), H929; format: cell-based; conditions: H929
# MM.1R cells = experiment: Anti-proliferation assay (ATPLite, 72 h), MM.1R; format: cell-based; conditions: MM.1R
# MM.1S cells = experiment: Anti-proliferation assay (ATPLite, 72 h), MM.1S; conditions: for synergy score: MM.1S
# OPM2 cells = experiment: Anti-proliferation assay (ATPLite, 72 h), OPM2; format: cell-based, human; conditions: for synergy score: in combination with CGS-21680, OPM-8
# [1] = test system: mantle cell lymphoma cell line Mino; experiment: Anti-proliferation assay (ATPLite, 72 h), Mino; format: cell-based, human
# Method: (§1) All of the cell lines were cultured in RPMI-1640 media supplemented with 10% FBS except OCI Ly10 cells (IMDM media supplemented with 20% human serum). The ANBL-6 cell line culture media also contained 10 ng/ml IL-6. MM.1S, MM.1R, SU-DHL6, Karpas 422, and OCI ly10 cells were provided by the Dana Farber Cancer Institute. ANBL-6 cells were provided by Bob Orlowsli (M.D. Anderson Cancer Research Center). H929, RPMI-8226, GA-10, Farage, Mino, JVM-13, Pfeiffer, Toledo, and Kusami-1 cells were from ATCC (Cat #'s CCL-155, CRL-9068, CRL-2392 CRL-2630, CRL-3000, CRL-3003, CRL-2632, CRL-2631, and CRL-2724 respectively). MOLP-8, OPM2, EJM, and KSM-12-PE cells were from DSMZ.
# (§2) Compounds were prepared in DMSO at 1000× the highest desired concentration. Master plates were generated consisting of serially diluted compounds in 2- or 3-fold dilutions in 384-well format. For single agent dose response curves, the master plates consisted of 9 individual compounds at 12 concentrations in 2- or 3-fold dilutions. For combination matrices, master plates consisted of individual compounds at 6 or 9 concentrations at 2- or 3-fold dilutions.
# (§3) The average untreated well value (avg. untreated wells) is the arithmetic mean of 40 wells from the same assay plate treated with vehicle alone. Negative inhibition values result from local variations in treated wells as compared to untreated wells.
# (§4) The uncertainty of each fitted parameter was estimated from the range over which the change in reduced chi-squared was less than one, or less than minimum reduced chi-squared if that minimum exceeded one, to allow for underestimated σI errors.
# (§5) Single agent curve data were used to define a dilution series for each compound to, be used for combination screening in a 6×6 matrix format. […] For compounds with no detectable single agent activity, a dilution factor of 4 was used, starting from the highest achievable concentration.
# (§6) The Loewe additivity model was used to quantify combination effects. Combinations were ranked initially by Additivity Excess Volume, which is defined as ADD Volume=ΣCX, CY(Idata−ILoewe). where ILoewe(CX,CY) is the inhibition that satisfies (CX/ECX)+(CY/ECY)=1, and ECX,Y are the effective concentrations at ILoewe for the single agent curves. A “Synergy Score” was also used, where the Synergy Score S=log fX log fY ΣIdata (Idata−ILoewe), summed over all non-single-agent concentration pairs, and where log fX,Y is the natural logarithm of the dilution factors used for each single agent.
# MOLP-8 cells = experiment: Anti-proliferation assay (ATPLite, 72 h), MOLP-8; format: cell-based; conditions: in combination with CGS-21680
# EJM cells = experiment: Anti-proliferation assay (ATPLite, 72 h), EJM; format: cell-based; conditions: in combination with CGS-21680
# ANBL-6 cells = experiment: Anti-proliferation assay (ATPLite, 72 h), ANBL-6; format: cell-based; conditions: in combination with CGS-21680
# KSM-12-PE cells = experiment: Anti-proliferation assay (ATPLite, 72 h), KSM-12-PE; format: cell-based; conditions: in combination with CGS-21680; KSM-12-PE
# [2] = test system: mantle cell lymphoma cell line JVM-13; experiment: Anti-proliferation assay (ATPLite, 72 h), JVM-13; format: cell-based, human
# Method: as §1, §2, §3, §4, §5, §6
# [3] = test system: chronic lymphocytic leukemia (CLL) cells; experiment: Apoptosis assay (Hoechst 33342 flow cytometry, 48 h) on patient CLL cells; format: cell-based, human; conditions: for Induction of CLL cell apoptosis: Patient #1
# Source text: Patients with active infections or other serious medical conditions were not included in this study. Patients with white blood cell counts of less than 15,000/μl by automated analysis were excluded from this study. Whole blood was layered on Ficoll-Hystopaque (Sigma), and peripheral blood mononuclear cells (PBMC) isolated after centrification. […] One million cells were stained with anti-CD5-PE and anti-CD19-PE-Cy5 (Becton […].). The percentage of B-CLL cells was defined as the percentage of cells doubly expressing CD5 and CD19, as determined by flow cytometry. […] Compound master plates were diluted 1:50 into complete media to create working compound dilutions. Compound crosses were then created by diluting two working dilution plates 1:10 into each plate of cells. […] Hoechst 33342 (Molecular Probes, Eugene Oreg.) at a final concentration of 0.25 μg/mL was added to each well and the cells incubated at 37° C. for an additional ten minutes before being placed on ice until analysis. Plates were then analyzed on a LSR-II flow cytometer (Becton Dickenson, Franklin Lakes, N.J.) equipped with the High Throughput Sampling (HTS) option in high throughput mode. […] The apoptotic fraction was calculated using FlowJo software (Tree Star Inc., Ashland, Oreg.) after excluding debris by a FSC/SSC gate and subsequently gating for cells that accumulate the Hoechst dye.
# [4] = combination with dexamethasone, Loewe-based Synergy Score, 72 h
smiles,measurement,setting,value
CCCCOc1ccc(CC(=O)NO)cc1 [Bufexamac],synergy score,RPMI-8226 cells; in combination with ADAC,1.399
same,synergy score,RPMI-8226 cells; in combination with HE-NECA,0.3833
same,synergy score,H929 cells; in combination with ADAC,1.12
same,synergy score,H929 cells; in combination with HE-NECA,3.17
same,synergy score,MM.1R cells; in combination with ADAC,1.532
same,synergy score,MM.1R cells; in combination with HE-NECA,3.173
same,synergy score,MM.1S cells; in combination with ADAC,1.479
same,synergy score,MM.1S cells; in combination with HE-NECA,3.476
Nc1ccn([C@@H]2O[C@H](CO)[C@@H](O)C2(F)F)c(=O)n1 [Gemcitibine],synergy score,RPMI-8226 cells; in combination with ADAC,0.3
same,synergy score,H929 cells; in combination with ADAC,0.07
same,synergy score,MM.1R cells; in combination with ADAC,1.2
same,synergy score,MM.1S cells; in combination with ADAC,1.42
CC(=O)S[C@@H]1CC2=CC(=O)CC[C@]2(C)[C@H]2CC[C@@]3(C)[C@@H](CC[C@@]34CCC(=O)O4)[C@H]12 [Spironolactone],synergy score,RPMI-8226 cells; in combination with ADAC,0.8213
same,synergy score,RPMI-8226 cells; in combination with HE-NECA,0.6876
same,synergy score,H929 cells; in combination with ADAC,0.6779
same,synergy score,H929 cells; in combination with HE-NECA,1.831
same,synergy score,MM.1R cells; in combination with ADAC,2.029
same,synergy score,MM.1R cells; in combination with HE-NECA,1.151
same,synergy score,MM.1S cells; in combination with ADAC,1.444
same,synergy score,MM.1S cells; in combination with HE-NECA,1.835
CC(/C=C/C(=O)NO)=C\[C@@H](C)C(=O)c1ccc(N(C)C)cc1 [Trichostatin A],percent inhibition of cell proliferation,OPM2 cells; Trichostatin A 0.0063 μM alone,13%
same,percent inhibition of cell proliferation,OPM2 cells; Trichostatin A 0.025 μM alone,48%
same,percent inhibition of cell proliferation,OPM2 cells; Trichostatin A 0.05 μM alone,76%
same,percent inhibition of cell proliferation,OPM2 cells; Trichostatin A 0.1 μM alone,99%
same,percent inhibition of cell proliferation,[1]; Trichostatin A 0.0063 μM alone,24%
same,percent inhibition of cell proliferation,[1]; Trichostatin A 0.025 μM alone,78%
same,percent inhibition of cell proliferation,[1]; Trichostatin A 0.05 μM alone,100%
same,percent inhibition of cell proliferation,[1]; Trichostatin A 0.1 μM alone,100%
Nc1cccc2c1CN(C1CCC(=O)NC1=O)C2=O (stereo not shown) [lenalidomide],synergy score,MOLP-8 cells,1.65
same,synergy score,OPM2 cells,1.36
same,synergy score,EJM cells,0.32
same,synergy score,ANBL-6 cells,1.45
same,synergy score,KSM-12-PE cells,0.83
same,synergy score,MM.1S cells; in combination with CGS-21680,4.87
CCc1c2c(nc3ccc(OC(=O)N4CCC(N5CCCCC5)CC4)cc13)-c1cc3c(c(=O)n1C2)COC(=O)[C@]3(O)CC [Irinotecan hydrochloride],synergy score,RPMI-8226 cells; in combination with ADAC,1.414
same,synergy score,RPMI-8226 cells; in combination with HE-NECA,1.227
same,synergy score,H929 cells; in combination with ADAC,1.877
same,synergy score,H929 cells; in combination with HE-NECA,0.6736
same,synergy score,MM.1R cells; in combination with ADAC,3.13
same,synergy score,MM.1R cells; in combination with HE-NECA,0.6972
same,synergy score,MM.1S cells; in combination with ADAC,2.576
same,synergy score,MM.1S cells; in combination with HE-NECA,0.6406
C[C@H]1c2cccc(O)c2C(=O)C2=C(O)[C@]3(O)C(=O)C(C(N)=O)=C(O)[C@@H](N(C)C)[C@@H]3[C@@H](O)[C@@H]21 [Doxycycline],synergy score,RPMI-8226 cells; in combination with ADAC,1.17
same,synergy score,H929 cells; in combination with ADAC,2.35
same,synergy score,MM.1R cells; in combination with ADAC,0.78
same,synergy score,MM.1S cells; in combination with ADAC,2.22
COC1=C2C[C@@H](C)C[C@H](OC)[C@H](O)[C@@H](C)/C=C(\C)[C@H](OC(N)=O)[C@@H](OC)/C=C\C=C(/C)C(=O)NC(=CC1=O)C2=O [Geldanomycin],percent inhibition of cell proliferation,[1]; Geldanomycin 0.0064 μM alone,4.7%
same,percent inhibition of cell proliferation,[1]; Geldanomycin 0.019 μM alone,4.3%
same,percent inhibition of cell proliferation,[1]; Geldanomycin 0.057 μM alone,6.7%
same,percent inhibition of cell proliferation,[1]; Geldanomycin 0.17 μM alone,14%
same,percent inhibition of cell proliferation,[1]; Geldanomycin 0.52 μM alone,27%
same,percent inhibition of cell proliferation,[2]; Geldanomycin 0.0064 μM alone,−5.8%
same,percent inhibition of cell proliferation,[2]; Geldanomycin 0.019 μM alone,−7.8%
same,percent inhibition of cell proliferation,[2]; Geldanomycin 0.057 μM alone,7.6%
same,percent inhibition of cell proliferation,[2]; Geldanomycin 0.17 μM alone,12%
same,percent inhibition of cell proliferation,[2]; Geldanomycin 0.52 μM alone,19%
COc1cccc2c1C(=O)c1c(O)c3c(c(O)c1C2=O)C[C@@](O)(C(=O)CO)C[C@@H]3O[C@H]1C[C@H](N)[C@H](O)[C@H](C)O1 [doxorubicin],synergy score,MOLP-8 cells,1.16
same,synergy score,OPM2 cells,0.46
same,synergy score,EJM cells,1.21
same,synergy score,ANBL-6 cells,2.54
same,synergy score,KSM-12-PE cells,0.81
same,synergy score,MM.1S cells; in combination with CGS-21680,1.65
"CCNC(=O)[C@H]1O[C@@H](n2cnc3c(N)nc(NCCc4ccc(CCC(=O)O)cc4)nc32)[C@H](O)[C@@H]1O [CGS-21680, 2-(4-(2-carboxyethyl)phenethylamino)-5′-N-ethylcarboxamidoadenosine]","Synergy score with dexamethasone, RPMI-8226",RPMI-8226 cells; [4],2.54
same,Induction of CLL cell apoptosis,[3]; CGS-21680 0.05 μM alone,12%
same,Induction of CLL cell apoptosis,[3]; CGS-21680 0.15 μM alone,14%
same,Induction of CLL cell apoptosis,[3]; CGS-21680 0.45 μM alone,16%
same,"apoptosis, CLL cells patient 1","[3]; patient 1, 48 hours",14%
same,"apoptosis, CLL cells patient #2","[3]; patient #2, 48 hours",9%
same,"Synergy score with dexamethasone, MM.1S",MM.1S cells; [4],4.73
Cn1cnc([N+](=O)[O-])c1Sc1ncnc2nc[nH]c12 [Azathioprine],synergy score,RPMI-8226 cells; in combination with ADAC,1.63
same,synergy score,H929 cells; in combination with ADAC,1.22
same,synergy score,MM.1R cells; in combination with ADAC,1.26
same,synergy score,MM.1S cells; in combination with ADAC,1.43
